“Also recorded” adds a separate entry of the source. Where a SMILES comes first, the peptide text is derived from it. [ ]: non-standard residue; d: D form.
Key:
[1] = target: T1, TRPV4 (Mus musculus, UniProt Q9EPK8); assay: 4α-PDD-evoked Ca++ signaling in 1° MK (fura-2 ratiometric imaging); format: cell-based
T1 construct: endogenous in cells; host or cells: primary mouse keratinocytes (WT 1° MK)
Procedure: (§1) Ca++ imaging of mouse 1° MK in response to chemical activation of TRPV4 was conducted after loading with 2 μM fura2-AM, following a ratiometric Ca2+ imaging protocol with 340/380 nm […] for dual excitation. Ratios of emissions were acquired at 0.5 Hz. ΔR/R0 was determined as the fraction of the increase of a given ratio over baseline ratio, divided by baseline ratio. For stimulation of cells with UVB, where fura-2 was not suitable because of the proximity of stimulation with 340/380 nm and 295 nm, 2 μM fluo4-AM was used instead. Ca++ imaging was carried out at 488 nm excitation, acquisition of emissions at 0.5 Hz, expressed as ΔF/F0. In the custom-built UV optical system, UV LEDs were capped with a ball lens, a transparent optical window in the shape of a hemispherical lens (FIG. 2B). The LED output optical beam focused at 15-20 mm from the lens, with a spot diameter of approximately 1.5-2.0 mm (FIG. 2C). […] The thermal equilibration stage was set for physiological temperature. We confirmed the non-thermal nature of UVB stimulation using the customized 295 nm LED device in a dedicated experiment (FIG. 2D), thus confirming the specific modality of stimulation as UVB.

[2] = tested on: primary mouse epidermal keratinocytes (1° MK); assay: UVB-evoked Ca++ signaling in primary mouse keratinocytes (fluo-4 imaging); format: cell-based; conditions: for effect on ET1-augmented, UVB-induced Ca++ transients in 1° MK: UVB and ET1 co-exposure; for effect on UVB-evoked Ca++ signal in 1° MK: concentration not given (IPP: same dose as against camphor)
Procedure: Ca++ imaging of 1° MK was conducted following routine procedures. For UVB stimulation, a customized device was built. The system comprised a printed circuit board for electrical interconnects and mechanical support and an ultraviolet light-emitting diode (UV LED).
The operating wavelength was 295 nm (FIG. 2A), with a full-width half-max of 12 nm. The optical power was 500 mW. The focal point was aimed at the plane of the upper surface of the quartz coverslip, which was used to minimize UV absorption along the optical path towards the cells (FIG. 2A-C). The optical intensity at the focal point was estimated to be 150 mW/mm^2.
as §1, with “temperature.” for “temperature. We confirmed the non-thermal nature of UVB stimulation using the customized 295 nm LED device in a dedicated experiment (FIG. 2D), thus confirming the specific modality of stimulation as UVB.”

[3] = tested on: ET1; assay: ET1 secretion by non-stimulated 1° MK (ELISA of supernatant); format: cell-based, mouse; conditions: two doses of GSK205, dose-dependent
[4] = tested on: ET1; assay: ET1 expression by UVB-exposed 1° MK (immunocytochemistry); format: cell-based, mouse; conditions: for ET1 immunoreactivity in UVB-exposed 1° MK: immunolabeling 24 hours after UVB-LED; for ET1 expression in UVB-exposed 1° MK, densitometric quantification: vs. control-treated and UVB-exposed cells, n≧25 cells, p<0.05
Procedure: 1° MK were exposed to UVB using the UV optical system (295 nm LED). 24 hours later the cells were fixed and fluorescently immunolabeled for ET1. Digital images were captured and subjected to morphometry.
Mouse keratinocytes were cultured on collagen coated quartz coverslips and then stimulated from the bottom using the previously mentioned UV optical system using the 295 nm LED. 24 hours later the cells were fixed in 4% formaldehyde in PBS for 20 minutes, permeabilized with 0.1% Triton X-100 in PBS for 10 minutes, washed, then blocked in 10% normal goat serum in PBS for 45 minutes. Coverslips were incubated overnight with primary antibody mouse anti-ET1 (1:200; Abcam), washed three times in PBS and incubated with secondary antibody for 2 hours at 25° C. Coverslips were washed three times in PBS, once with double-distilled H2O. Digital images were captured using a 40× immersion lens on the BX61 Olympus upright microscope. Morphometric analysis was conducted using ImageJ freeware with tailored regions-of-interest.

[5] = target: T1, TRPV4; assay: GSK101-evoked Ca++ transient in 1° MK (fura-2); format: cell-based
Procedure: as §1

[6] = target: T2, TRPV3 (Mus musculus, UniProt Q8K424); assay: TRPV3 activation experiment: camphor-evoked Ca++ transient in keratinocytes; format: cell-based
T2 construct: endogenous in cells; host or cells: primary mouse keratinocytes (1° MK)
T2 sequence (Q8K424 1-791): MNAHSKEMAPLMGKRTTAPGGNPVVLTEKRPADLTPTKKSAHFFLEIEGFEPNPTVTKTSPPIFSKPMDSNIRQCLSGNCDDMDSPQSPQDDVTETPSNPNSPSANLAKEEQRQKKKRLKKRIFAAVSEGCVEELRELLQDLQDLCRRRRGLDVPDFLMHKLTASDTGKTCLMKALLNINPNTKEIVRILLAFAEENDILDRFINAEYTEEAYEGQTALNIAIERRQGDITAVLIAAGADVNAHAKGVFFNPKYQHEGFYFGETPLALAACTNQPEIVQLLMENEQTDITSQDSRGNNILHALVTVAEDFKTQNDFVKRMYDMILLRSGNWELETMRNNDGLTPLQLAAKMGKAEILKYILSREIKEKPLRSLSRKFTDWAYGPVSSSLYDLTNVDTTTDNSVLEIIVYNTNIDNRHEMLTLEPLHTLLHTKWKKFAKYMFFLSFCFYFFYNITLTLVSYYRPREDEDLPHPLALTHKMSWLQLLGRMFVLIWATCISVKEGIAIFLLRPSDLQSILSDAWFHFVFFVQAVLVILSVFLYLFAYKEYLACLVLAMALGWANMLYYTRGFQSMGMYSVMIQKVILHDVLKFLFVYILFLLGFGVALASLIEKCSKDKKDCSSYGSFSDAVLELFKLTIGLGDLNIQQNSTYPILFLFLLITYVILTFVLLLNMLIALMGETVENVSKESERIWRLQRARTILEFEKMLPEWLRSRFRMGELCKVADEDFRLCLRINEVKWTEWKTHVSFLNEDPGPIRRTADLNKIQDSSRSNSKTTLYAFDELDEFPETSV

[7] = tested on: mice; assay: Nocifensive behavior in response to ET1 footpad injection (von Frey); format: in vivo, mouse
Procedure: ET1 injections: After determining base-line withdrawal thresholds, each animal received an intraplantar injection of 10 μL 100 nM ET-1 plus contralateral vehicle. Thresholds were again evaluated 1 hour after injection.
Hindpaw mechanical withdrawal thresholds were determined by the automated von Frey hair method, using a 0.5 mm diameter stainless steel filament, part of an automated plantar touch stimulator (Ugo Basile, Modena, Italy). Relevant detail included pre-test acclimatization in a quiet room for 30 min, conducting the test at the same time of day and blinded observers. The stimulus was delivered to the hindpaw, automatically discontinued upon withdrawal, and its intensity recorded automatically. 6-8 trials per animal were conducted, with equal exposure of both hindpaws, leading to an average withdrawal threshold. Results are reported as Δ-threshold, which was calculated by subtracting post-treatment from pre-treatment measurements, expressed as % or relative to 1.0.

T1 sequence (Q9EPK8 whole entry): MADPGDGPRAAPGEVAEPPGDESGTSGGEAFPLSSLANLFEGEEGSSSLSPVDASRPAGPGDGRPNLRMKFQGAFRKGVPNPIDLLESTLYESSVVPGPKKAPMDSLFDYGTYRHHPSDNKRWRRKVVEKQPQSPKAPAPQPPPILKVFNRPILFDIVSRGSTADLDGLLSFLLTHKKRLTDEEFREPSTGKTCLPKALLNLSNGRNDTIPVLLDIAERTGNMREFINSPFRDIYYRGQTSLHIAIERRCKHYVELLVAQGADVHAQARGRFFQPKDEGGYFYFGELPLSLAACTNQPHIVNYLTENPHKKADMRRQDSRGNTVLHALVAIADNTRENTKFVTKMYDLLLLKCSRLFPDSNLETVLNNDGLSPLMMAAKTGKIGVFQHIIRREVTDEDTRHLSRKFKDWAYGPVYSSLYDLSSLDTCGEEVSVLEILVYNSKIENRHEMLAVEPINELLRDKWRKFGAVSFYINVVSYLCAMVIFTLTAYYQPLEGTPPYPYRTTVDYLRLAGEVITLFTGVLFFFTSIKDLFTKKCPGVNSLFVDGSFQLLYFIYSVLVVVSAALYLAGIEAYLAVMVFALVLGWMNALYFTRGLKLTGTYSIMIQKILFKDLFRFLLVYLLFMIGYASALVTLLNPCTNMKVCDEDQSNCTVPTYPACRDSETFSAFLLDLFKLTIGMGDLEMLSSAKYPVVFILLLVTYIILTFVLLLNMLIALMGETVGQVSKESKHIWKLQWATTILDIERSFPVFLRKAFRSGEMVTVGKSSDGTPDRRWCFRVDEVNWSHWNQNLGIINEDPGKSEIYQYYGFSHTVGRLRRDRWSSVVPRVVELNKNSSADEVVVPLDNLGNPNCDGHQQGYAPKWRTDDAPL

Compound | effect on UVB-evoked Ca++ signal in 1° MK [2] | ET1 secretion by non-stimulated 1° MK [3] | ET1 immunoreactivity in UVB-exposed 1° MK [4] | ET1 expression in UVB-exposed 1° MK, densitometric quantification [4] | other results
CCCCCCCCCC(=O)O[C@@H]1[C@@H](C)[C@@]2(O)[C@@H](C=C(CO)C[C@@]3(O)C(=O)C(C)=C[C@@H]23)[C@@H]2C(C)(C)[C@]12OC(=O)CCCCCCCCC [4α-PDD, 4α-phorbol 12,13 didecanoate] | – | – | – | – | Ca++ transients evoked in 1° MK ([1]; 4α-PDD): Ca++ transients
CC(C)C[C@@H]1NC(=O)[C@@H](C(C)C)NC(=O)[C@@H]2CCCN2C(=O)[C@@H](CC(=O)O)NC(=O)[C@@H](Cc2c[nH]c3ccccc23)NC1=O [BQ123] (cyclo(L[dW][dD]P[dV])) | – | – | – | – | effect on ET1-augmented, UVB-induced Ca++ transients in 1° MK [2]: attenuated
CCCC[C@@H](NC(=O)[C@@H](Cc1cn(C(=O)OC)c2ccccc12)NC(=O)[C@H](CC(C)(C)C)NC(=O)N1[C@H](C)CCC[C@@H]1C)C(=O)O [BQ788] | – | – | – | – | effect on ET1-augmented, UVB-induced Ca++ transients in 1° MK [2]: attenuated
O=C(O)C(Cc1ccc2c(c1)oc1ccccc12)NCP(=O)(O)O (stereo not shown) [CGS35066] | significantly diminished; also recorded: significant attenuation | down-regulation | significant down-regulation | significant down-regulation | –
CC(C)C[C@H](NC(=O)c1cc2ccccc2s1)C(=O)N1CCN(C(=O)[C@H](CO)NS(=O)(=O)c2ccc(Cl)cc2Cl)CC1 [GSK101] | – | – | – | – | Ca++ transient evoked in 1° MK ([5]; 5 nM GSK101, WT 1° MK): directly stimulate TRPV4; also recorded: Ca++ transient
C=C(C)CCO[P@@](=O)(O)OP(=O)(O)O [IPP, isopentenyl pyrophosphate] | no effect; also recorded: not inhibited | – | – | – | –
CC(C)NCCN(C(C)C)S(=O)(=O)c1ccc(Cl)cc1Cl [RN1734] | – | significant down-regulation | diminished; also recorded: significant down-regulation | significant down-regulation | –
COc1ccc2c(c1)CC[C@@H]1[C@@H]2CC[C@]2(C)[C@@H](NCCCCCCN3C(=O)C=CC3=O)CC[C@@H]12 [U73122] | virtually eliminated; also recorded: strongly reduced | down-regulation | dampened; also recorded: significant down-regulation | significant down-regulation | –
CC12CCC(CC1=O)C2(C)C (stereo not shown) [camphor, Camphor] | – | – | – | – | induction of a Ca++ transient [6]: Induction of a Ca++ transient
endothelin-1 [ET1] | – | – | – | – | effect of ET1 co-exposure on UVB-evoked Ca++ transients in 1° MK ([2]; co-exposure UVB + ET1 peptide): significant increase; also recorded: augmentation; effect of ET1 on GSK101-evoked Ca++ signaling ([5]; 5 nM GSK101, co-exposure to ET1): augmented; also recorded: increase in signal; effect of ET1 co-application on 4α-PDD-evoked Ca++ response ([1]; co-application with 4α-PDD): significant increase; mechanical allodynia after ET1 footpad injection, TRPV4-deficient mice ([7]; Trpv4−/− and tam-treated iKO mice): fail to respond; mechanical withdrawal thresholds after ET1 footpad injection, control mice ([7]; WT and oil-treated iKO mice, 10 μL 100 nM ET-1 intraplantar): significantly lowered; also recorded: significant levels of mechanical allodynia

— US9701675B2, “Activation of TRPV4 ion channel by physical stimuli and critical role for TRPV4 in organ-specific inflammation and itch” (Duke University, priority 2012, dated 2017)
